Source: patent US20240116946A1 (Gilead Sciences, Inc., priority 2022, published 2024)
Read-outs that look alike come from different tables or passages of the source.

Columns and labels:
[1] = biological target: recombinant SARS-CoV-2 Main protease (Mpro) (Severe acute respiratory syndrome coronavirus 2 (2019-nCoV) (SARS-CoV-2), UniProt P0DTD1); assay: Cov Mpro Biochemical IC50 Assay
SARS-CoV-2-NLuc = assay: microbe, parasite or virus in culture; format: cell-based, SARS Coronavirus 2
[2] = recombinant SARS-CoV-2 Mpro 7.5 nM, fluorogenic peptide substrate 40 μM, read-out: MPro IC50
[3] = Severe acute respiratory syndrome coronavirus, 48 h, read-out: MPro EC50
[4] = Severe acute respiratory syndrome coronavirus, 48 h; read-out: MPro EC50
[5] = recombinant SARS-CoV-2 Mpro, fluorogenic peptide substrate, read-out: MPro IC50

SMILES | IC50 [1, 2] | EC50 (SARS-CoV-2-NLuc; [3]) | IC50 [1, 5] | other results
COc1cc(-c2cc3c(s2)c(=O)n(-c2cncc4cnn(C)c24)c(=O)n3CCC#N)c(Cl)cc1F (single isomer, unassigned) [Example 644, 3-[6-(2-chloro-4-fluoro-5-methoxy-phenyl)-3-(1-methylpyrazolo[4,3-c]pyridin-7-yl)-2,4-dioxo-thieno[3,2-d]pyrimidin-1-yl]propanenitrile] | 3.1 nM |  |  | EC50 (SARS-CoV-2-NLuc; read-out: MPro EC50): 1.55 nM
COc1cc(-c2cc3[nH]c(=O)n(-c4cncc5ccccc45)c(=O)c3cc2OC)c(Cl)cc1F [Example 672, 7-(2-chloro-4-fluoro-5-methoxyphenyl)-3-(isoquinolin-4-yl)-6-methoxyquinazoline-2,4(1H,3H)-dione] | 37.8 nM | 23.8 nM |  | 
Cn1ncc2cncc(-n3c(=O)c4sc(-c5cc(F)ccc5C#N)cc4n(CCC#N)c3=O)c21 [Example 778] | 19 nM | 179 nM |  | 
COc1cc(-c2cc3c(s2)c(=O)n(-c2cncc4cccc(F)c24)c(=O)n3CCC#N)c(Cl)cc1F [Example 901, 3-(6-(2-chloro-4-fluoro-5-methoxyphenyl)-3-(5-fluoroisoquinolin-4-yl)-2,4-dioxo-3,4-dihydrothieno[3,2-d]pyrimidin-1(2H)-yl)propanenitrile] | 2.53 nM | 5.16 nM |  | 
COc1cc(-c2cc3c(s2)c(=O)n(-c2cncc4ncn(C)c24)c(=O)n3CCC#N)c(C#N)cc1F [Example 845] | 10 nM | 388 nM |  | 
COc1ccc2cncc(-n3c(=O)[nH]c4cc(-c5c(Cl)cccc5C5=CCOCC5)sc4c3=O)c2c1 [Example 563] | 6.96 nM | 10 nM |  | 
N#CCCn1c(=O)n(-c2cncc3ccccc23)c(=O)c2sc(-c3ccccc3C#N)cc21 [Example 819, 2-(1-(2-cyanoethyl)-3-(isoquinolin-4-yl)-2,4-dioxo-1,2,3,4-tetrahydrothieno[3,2-d]pyrimidin-6-yl)benzonitrile] | 10.3 nM | 11.3 nM |  | 
COc1cc(-c2cc3c(s2)c(=O)n(-c2cc(C)cnc2F)c(=O)n3CCC#N)c(Cl)cc1F [Example 770] | 6.12 nM |  |  | EC50 (SARS-CoV-2-NLuc; [4]): 4.8 nM
Cn1cnc(COc2ccc(Cl)c(-c3ccc4c(=O)n(-c5cncc6ccccc56)c(=O)[nH]c4c3)c2)n1 [Example 90] |  | 886 nM | 487 nM | 
COc1ccc(Cl)c(-c2cc3[nH]c(=O)n(-c4cncc5ccc(N6CCOCC6)cc45)c(=O)c3cc2F)c1 [Example 434] | 16 nM |  |  | EC50 (SARS-CoV-2-NLuc; [4]): 33.3 nM
COc1cc(-c2cc3[nH]c(=O)n(-c4cncc5ccccc45)c(=O)c3s2)c(Cl)cc1F (single isomer, unassigned) [Example 557, 6-(2-chloro-4-fluoro-5-methoxyphenyl)-3-(isoquinolin-4-yl)thieno[3,2-d]pyrimidine-2,4(1H,3H)-dione] | 103 nM |  |  | EC50 (SARS-CoV-2-NLuc; read-out: MPro EC50): 65.4 nM
COc1cc(-c2cc3c(s2)c(=O)n(-c2cncc4cnn(C)c24)c(=O)n3CC#N)c(C#N)cc1F [Example 693] | 2.56 nM | 94.2 nM |  | 
Cc1c(-c2cccc(Cl)c2-c2ccc3c(=O)n(-c4cncc5ccccc45)c(=O)[nH]c3c2)cnn1C1CCN(C(=O)OC(C)(C)C)CC1 [Example 268] |  | 43.1 nM | 131 nM | 
COc1ccc(Cn2c(=O)n(-c3cncc4ccccc34)c(=O)c3sc(-c4cccc5c4CCC5)cc32)cc1 [Example 167, 6-(2,3-dihydro-1H-inden-4-yl)-3-(isoquinolin-4-yl)-1-(4-methoxybenzyl)thieno[3,2-d]pyrimidine-2,4(1H,3H)-dione] |  | 4510 nM | 49700 nM | 
O=c1[nH]c2cc(-c3ccccc3Cl)sc2c(=O)n1-c1cncc2cn(CC(F)(F)F)nc12 [Example 494] | 36 nM | 118 nM |  | 
Cc1ccc2nn(C)cc2c1-c1cc2[nH]c(=O)n(-c3cncc4cnn(C)c34)c(=O)c2s1 [Example 1015] | 50.9 nM | 597 nM |  | 
COc1ccc(C#N)c(-c2cc3c(cc2F)c(=O)n(-c2cncc4ccccc24)c(=O)n3CC#N)c1 (atropisomer, axis not shown) [Example 701] | < 3.63 nM | 79.9 nM |  | 
N#Cc1cccc(-c2ccc3c(=O)n(-c4cncc5ccccc45)c(=O)[nH]c3c2)c1 [Example 34] |  | 6530 nM | 1520 nM | 
Cc1c(-c2cccc(Cl)c2-c2ccc3c(=O)n(-c4cncc5ccccc45)c(=O)[nH]c3c2)cn2ncnc2c1C [Example 233] |  | 26.8 nM | 12.3 nM | 
COc1cc(-c2cc3c(s2)c(=O)n(-c2cncc4ccccc24)c(=O)n3[C@H]2C[C@@H](C#N)C2)c(Cl)cc1F [Example 694] | 19.3 nM | 61 nM |  | 
COc1cc(-c2cc3[nH]c(=O)n(-c4cnccc4C)c(=O)c3s2)c(Cl)cc1F [Example 713] |  |  |  | IC50 ([1]; MPro IC50, recombinant SARS-CoV-2 Mpro 7.5 nM, fluorogenic peptide substrate 40 μM): 9.18 nM; EC50 (SARS-CoV-2-NLuc; [4]): 15 nM

SMILES | IC50 [1, 2] | EC50 (SARS-CoV-2-NLuc; [3]) | IC50 [1, 5] | other results
O=c1[nH]c2cc(-c3ccccc3Cl)ccc2c(=O)n1-c1cncc(C2CC2)c1 [Example 127] |  |  |  | IC50 ([1]; MPro IC50, recombinant SARS-CoV-2 Mpro, fluorogenic peptide substrate): 776 nM; EC50 (SARS-CoV-2-NLuc; [4]): 652 nM
COc1cnc(Cl)c(-c2cc3c(s2)c(=O)n(-c2cncc4nn(C)c(C)c24)c(=O)n3CCC#N)c1 [Example 1086] | 24.6 nM | 413 nM |  | 
Cc1c(Cl)cncc1-n1c(=O)c2sc(-c3ccccc3C#N)cc2n(CCC#N)c1=O [Example 846] | 12.5 nM |  |  | EC50 (SARS-CoV-2-NLuc; [4]): 37.3 nM
COc1cc(-c2cc3c(s2)c(=O)n(-c2cncc(N4CCOCC4)c2)c(=O)n3CCC#N)c(Cl)cc1F [Example 873] | 263 nM | > 1000 nM |  | 
Cc1cc(-c2cccc(Cl)c2-c2cc3[nH]c(=O)n(-c4cncc5ccccc45)c(=O)c3s2)cn2ncnc12 [Example 113] |  | < 7.31 nM | 7.31 nM | 
COc1cc(-c2sc3c(=O)n(-c4cncc5ccccc45)c(=O)[nH]c3c2C)c(Cl)cc1F [Example 1016] | 357 nM |  |  | EC50 (SARS-CoV-2-NLuc; [4]): > 1000 nM
COc1cc(-c2cc3c(s2)c(=O)n(-c2cncc4ccsc24)c(=O)n3CC#N)c(Cl)cc1F [Example 653] | 2.58 nM | 4.45 nM |  | 
O=c1[nH]c2cc(-c3ccccc3Cl)sc2c(=O)n1-c1cncc2ccccc12 [Example 1, 6-(2-chlorophenyl)-3-(isoquinolin-4-yl)thieno[3,2-d]pyrimidine-2,4(1H,3H)-dione] |  |  | 10.8 nM | EC50 (SARS-CoV-2-NLuc; [4]): 28.9 nM
O=c1[nH]c2cc(-c3c(Cl)cccc3-c3ccc4nccn4c3)ccc2c(=O)n1-c1cncc2ccccc12 [Example 147] |  | 17.1 nM | 11 nM | 
N#Cc1ccc(Cl)c(-c2ccc3c(=O)n(-c4cncc5ccccc45)c(=O)[nH]c3c2)c1 [Example 182] |  | 90 nM | 45.1 nM | 
O=c1[nH]c2cc(-c3ccccc3Cl)sc2c(=O)n1-c1cnccc1N1CCOCC1 [Example 139] |  | 595 nM | 108 nM | 
COc1cnc(Cl)c(-c2cc3[nH]c(=O)n(-c4cncc5ccccc45)c(=O)c3s2)c1 (single isomer, unassigned) [Example 628, 6-(2-chloro-5-methoxypyridin-3-yl)-3-(isoquinolin-4-yl)thieno[3,2-d]pyrimidine-2,4(1H,3H)-dione] | 3.26 nM |  |  | EC50 (SARS-CoV-2-NLuc; read-out: MPro EC50): 15.9 nM
Cc1cccc(C#N)c1-c1ccc2c(=O)n(-c3cncc4ccccc34)c(=O)[nH]c2c1 [Example 96] |  | 296 nM | 151 nM | 
COc1cc(-c2cc3c(s2)c(=O)n(-c2cncc4nnn(C)c24)c(=O)n3CC2(C#N)CC2)c(Cl)cc1F [Example 688] | 9.78 nM | 14.5 nM |  | 
CNC(=O)CCn1c(=O)n(-c2cncc(C3CC3)c2)c(=O)c2sc(-c3ccccc3Cl)cc21 [Example 619, 3-(6-(2-chlorophenyl)-3-(5-cyclopropylpyridin-3-yl)-2,4-dioxo-3,4-dihydrothieno[3,2-d]pyrimidin-1(2H)-yl)-N-methylpropanamide] | 245 nM |  |  | EC50 (SARS-CoV-2-NLuc; [4]): 451 nM
O=c1[nH]c2cc(-c3csc4ccccc34)ccc2c(=O)n1-c1cncc2ccccc12 [Example 50] |  | 9060 nM | 7920 nM | 
COc1ccc(Cl)c(-c2cc3[nH]c(=O)n(-c4cncc5ccc(N6CCNC(=O)C6)cc45)c(=O)c3s2)c1 [Example 416] | 4.63 nM | 187 nM |  | 
CCn1ncc2cncc(-n3c(=O)[nH]c4cc(-c5cc(OC)c(F)cc5Cl)sc4c3=O)c21 [Example 732] | 15.1 nM | 15.7 nM |  | 
Cn1ncc2cncc(-n3c(=O)[nH]c4cc(-c5ccc(F)cc5Cl)sc4c3=O)c21 [Example 662] | 40.5 nM | 81.7 nM |  | 
Cc1cn(C)nc1-c1cccc(Cl)c1-c1ccc2c(=O)n(-c3cncc4ccccc34)c(=O)[nH]c2c1 [Example 258] |  | 75.9 nM | 61.3 nM | 
COc1cc(-c2cc3c(s2)c(=O)n(-c2cncc(Cl)c2)c(=O)n3CCC#N)c(Cl)cc1F [Example 985] | 2.11 nM | 6.7 nM |  | 
